Experimental data as given in patent US20170240556A1, “BIFLUORODIOXALANE-AMINO-BENZIMIDAZOLE KINASE INHIBITORS FOR THE TREATMENT OF CANCER, AUTOIMMUNEINFLAMMATION AND CNS DISORDERS” (4SC DISCOVERY GMBH, priority 2012, published 2017).

Assays:
[1] = molecular target: Casein kinase 1 epsilon (CSKN1E) (Homo sapiens, UniProt P49674); experiment: Casein kinase assay, CK1 epsilon; assay type: biochemical; details: recombinant CSKN1E 30 nM, ATP 10 μM
Method: The recombinant protein Casein kinase 1 delta (CSKN1D) was added to the substrate solution in a concentration of 5 nM and gently mixed. Dilution series in of compounds of the present invention in DMSO were added to the reaction mixture, followed after 20 min by addition of a mixture of ATP and ^33P-ATP (specific activity 0.01 μCi/μl final) to a final concentration of 10 μM. Reactions were carried out at 25° C. for 120 min, followed by spotting the reactions onto P81 ion exchange filter paper. Unbound phosphate was removed by washing of the filters in 0.75% phosphoric acid. […] IC50 values and curve fits were obtained using the program Prism® (Graph Pad Software).
The above assay was also used to determine the inhibitory capacity of the compounds of the present invention on Casein Kinase 1 epsilon, wherein instead of CSKN1D, recombinant protein Casein kinase 1 epsilon (CSKN1E) was added to the substrate solution in a concentration of 30 nM and gently mixed.

[2] = molecular target: Casein kinase 1 delta (CSKN1D) (Homo sapiens, UniProt P48730); experiment: Casein kinase assay, CK1 delta; assay type: biochemical; details: recombinant CSKN1D 5 nM, ATP 10 μM
Casein kinase 1 delta (CSKN1D), sequence (P48730 whole entry): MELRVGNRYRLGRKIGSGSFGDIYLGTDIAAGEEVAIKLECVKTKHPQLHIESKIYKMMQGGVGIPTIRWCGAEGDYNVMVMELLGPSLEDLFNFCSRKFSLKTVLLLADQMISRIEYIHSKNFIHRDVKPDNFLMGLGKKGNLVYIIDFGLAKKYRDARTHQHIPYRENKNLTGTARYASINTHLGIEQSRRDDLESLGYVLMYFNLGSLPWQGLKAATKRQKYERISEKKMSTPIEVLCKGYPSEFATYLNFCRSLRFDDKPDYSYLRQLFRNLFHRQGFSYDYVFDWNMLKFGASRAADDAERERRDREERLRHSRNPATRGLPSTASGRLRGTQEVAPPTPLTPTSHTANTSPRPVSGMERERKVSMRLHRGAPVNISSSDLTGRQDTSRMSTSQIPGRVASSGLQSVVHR

Casein kinase 1 epsilon (CSKN1E), sequence (P49674 whole entry): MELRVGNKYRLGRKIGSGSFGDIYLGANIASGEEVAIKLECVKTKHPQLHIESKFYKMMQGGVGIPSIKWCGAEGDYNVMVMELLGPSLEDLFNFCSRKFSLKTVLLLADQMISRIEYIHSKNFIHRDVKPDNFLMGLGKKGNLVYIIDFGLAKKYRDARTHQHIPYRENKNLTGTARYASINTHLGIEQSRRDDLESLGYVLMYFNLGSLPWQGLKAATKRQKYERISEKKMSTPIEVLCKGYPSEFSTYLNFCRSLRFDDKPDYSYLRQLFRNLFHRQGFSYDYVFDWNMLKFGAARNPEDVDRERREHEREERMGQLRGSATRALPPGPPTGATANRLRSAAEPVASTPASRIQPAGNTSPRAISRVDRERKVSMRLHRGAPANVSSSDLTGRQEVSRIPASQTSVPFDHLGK

| SMILES | IC50 [1] [nM] | IC50 [2] [nM] |
| --- | --- | --- |
| O=C(Nc1nc2cc3c(cc2[nH]1)OC(F)(F)O3)c1csc(-n2c(=O)n(CCN3CCOCC3)c3ccccc32)n1 [Compound 98, N-(2,2-difluoro-5H-[1,3]dioxolo[4′,5′:4,5]benzo[1,2-d]imidazol-6-yl)-2-(3-(2-morpholinoethyl)-2-oxo-2,3-dihydro-1H-benzo[d]imidazol-1-yl)thiazole-4-carboxamide] | > 1000 | 200 to 1000 |
| O=C(Nc1nc2cc3c(cc2[nH]1)OC(F)(F)O3)c1coc(N2CCOCC2)n1 [Compound 24, N-(2,2-difluoro-5H-[1,3]dioxolo[4′,5′:4,5]benzo[1,2-d]imidazol-6-yl)-2-morpholinooxazole-4-carboxamide] | 200 to 1000 | 200 to 1000 |
| O=C(Nc1nc2cc3c(cc2[nH]1)OC(F)(F)O3)c1cccc(Cl)c1 [Compound 41, 3-chloro-N-(2,2-difluoro-5H-[1,3]dioxolo[4′,5′:4,5]benzo[1,2-d]imidazol-6-yl)benzamide] | < 200 | < 200 |
| O=C(Nc1nc2cc3c(cc2[nH]1)OC(F)(F)O3)c1nsc(NC(=O)c2ccccc2OC(F)(F)F)n1 [Compound 17, N-(2,2-difluoro-5H-[1,3]dioxolo[4′,5′:4,5]benzo[1,2-d]imidazol-6-yl)-5-(2-(trifluoromethoxy)benzamido)-1,2,4-thiadiazole-3-carboxamide] | < 200 | < 200 |
| O=C(Nc1nc2cc3c(cc2[nH]1)OC(F)(F)O3)c1nc(NC(=O)c2ccc(Cl)cc2Cl)n[nH]1 [Compound 51, 3-(2,4-dichlorobenzamido)-N-(2,2-difluoro-5H-[1,3]dioxolo[4′,5′:4,5]benzo[1,2-d]imidazol-6-yl)-1H-1,2,4-triazole-5-carboxamide] | 200 to 1000 | < 200 |
| Cc1nn(-c2ccc(Cl)c(Cl)c2)c(C)c1C(=O)Nc1nc2cc3c(cc2[nH]1)OC(F)(F)O3 [Compound 14, 1-(3,4-dichlorophenyl)-N-(2,2-difluoro-5H-[1,3]dioxolo[4′,5′:4,5]benzo[1,2-d]imidazol-6-yl)-3,5-dimethyl-1H-pyrazole-4-carboxamide] | > 1000 | > 1000 |
| O=C(Nc1nc2cc3c(cc2[nH]1)OC(F)(F)O3)c1ccccc1OC(F)(F)F [Compound 47, N-(2,2-difluoro-5H-[1,3]dioxolo[4′,5′:4,5]benzo[1,2-d]imidazol-6-yl)-2-(trifluoromethoxy)benzamide] | > 1000 | 200 to 1000 |
| Cc1nnsc1C(=O)Nc1nc2cc3c(cc2[nH]1)OC(F)(F)O3 [Compound 42, N-(2,2-difluoro-5H-[1,3]dioxolo[4′,5′:4,5]benzo[1,2-d]imidazol-6-yl)-4-methyl-1,2,3-thiadiazole-5-carboxamide] | > 1000 | > 1000 |
| NS(=O)(=O)c1cc(C(=O)Nc2nc3cc4c(cc3[nH]2)OC(F)(F)O4)cs1 [Compound 83, N-(2,2-difluoro-5H-[1,3]dioxolo[4′,5′:4,5]benzo[1,2-d]imidazol-6-yl)-5-sulfamoylthiophene-3-carboxamide] | < 200 | < 200 |
| O=C(Nc1nc2cc3c(cc2[nH]1)OC(F)(F)O3)c1csc(-c2cccc(Cl)c2Cl)n1 [Compound 6, 2-(2,3-dichlorophenyl)-N-(2,2-difluoro-5H-[1,3]dioxolo[4′,5′:4,5]benzo[1,2-d]imidazol-6-yl)thiazole-4-carboxamide] | > 1000 | > 1000 |
| O=C(Nc1nc2cc3c(cc2[nH]1)OC(F)(F)O3)c1csc(N2CCOCC2)n1 [Compound 37, N-(2,2-difluoro-5H-[1,3]dioxolo[4′,5′:4,5]benzo[1,2-d]imidazol-6-yl)-2-morpholinothiazole-4-carboxamide] | 200 to 1000 | < 200 |
| COc1ccccc1C(=O)Nc1nc(C(=O)Nc2nc3cc4c(cc3[nH]2)OC(F)(F)O4)co1 [Compound 12, N-(2,2-difluoro-5H-[1,3]dioxolo[4′,5′:4,5]benzo[1,2-d]imidazol-6-yl)-2-(2-methoxybenzamido)oxazole-4-carboxamide] | > 1000 | 200 to 1000 |
| O=C(Nc1nc2cc3c(cc2[nH]1)OC(F)(F)O3)c1c(F)cccc1F [Compound 54, N-(2,2-difluoro-5H-[1,3]dioxolo[4′,5′:4,5]benzo[1,2-d]imidazol-6-yl)-2,6-difluorobenzamide] | > 1000 | 200 to 1000 |
| O=C(Nc1n[nH]c(C(=O)Nc2nc3cc4c(cc3[nH]2)OC(F)(F)O4)n1)c1ccc(Cl)cc1 [Compound 129, 3-(chlorobenzamido)-N-(2,2-difluoro-5H-[1,3]dioxolo[4′,5′:4,5]benzo[1,2-d]imidazol-6-yl)-1H-1,2,4-triazole-5-carboxamide] | > 1000 | 200 to 1000 |
| O=C(Nc1n[nH]c(C(=O)Nc2nc3cc4c(cc3[nH]2)OC(F)(F)O4)n1)c1ccc([N+](=O)[O-])cc1 [Compound 61, N-(2,2-difluoro-5H-[1,3]dioxolo[4′,5′:4,5]benzo[1,2-d]imidazol-6-yl)-3-(4-nitrobenzamido)-1H-1,2,4-triazole-5-carboxamide] | > 1000 | > 1000 |
| O=C(Nc1nc2cc3c(cc2[nH]1)OC(F)(F)O3)c1cc([N+](=O)[O-])c[nH]1 [Compound 88, N-(2,2-difluoro-5H-[1,3]dioxolo[4′,5′:4,5]benzo[1,2-d]imidazol-6-yl)-4-nitro-1H-pyrrole-2-carboxamide] | < 200 | < 200 |
| COc1ccc(C(=O)Nc2nc(C(=O)Nc3nc4cc5c(cc4[nH]3)OC(F)(F)O5)cs2)cc1 [Compound 69, N-(2,2-difluoro-5H-[1,3]dioxolo[4′,5′:4,5]benzo[1,2-d]imidazol-6-yl)-2-(4-methoxybenzamido)thiazole-4-carboxamide] | 200 to 1000 | < 200 |
| O=C(Nc1nc2cc3c(cc2[nH]1)OC(F)(F)O3)c1cc(-c2ccco2)on1 [Compound 143, N-(2,2-difluoro-5H-[1,3]dioxolo[4′,5′:4,5]benzo[1,2-d]imidazol-6-yl)-5-(furan-2-yl)isoxazole-3-carboxamide] | 200 to 1000 | 200 to 1000 |
| O=C(Nc1nc2cc3c(cc2[nH]1)OC(F)(F)O3)c1csc([N+](=O)[O-])c1 [Compound 30, N-(2,2-difluoro-5H-[1,3]dioxolo[4′,5′:4,5]benzo[1,2-d]imidazole-6-yl)-5-nitrothiophene-3-carboxamide] | < 200 | < 200 |
| O=C(Nc1nc(C(=O)Nc2nc3cc4c(cc3[nH]2)OC(F)(F)O4)cs1)c1ccc(Cl)cc1 [Compound 8, 2-(4-chlorobenzamido)-N-(2,2-difluoro-5H-[1,3]dioxolo[4′,5′:4,5]benzo[1,2-d]imidazol-6-yl)thiazole-4-carboxamide] | 200 to 1000 | 200 to 1000 |
| O=C(Nc1nc2cc3c(cc2[nH]1)OC(F)(F)O3)c1coc(-c2ccc3c(c2)CCO3)n1 [Compound 40, N-(2,2-difluoro-5H-[1,3]dioxolo[4′,5′:4,5]benzo[1,2-d]imidazol-6-yl)-2-(2,3-dihydrobenzofuan-5-yl)oxazole-4-carboxamide] | > 1000 | > 1000 |
| Nc1ncc(Br)nc1C(=O)Nc1nc2cc3c(cc2[nH]1)OC(F)(F)O3 [Compound 22, 2-amino-6-bromo-N-(2,2-difluoro-5H-[1,3]dioxolo[4′,5′:4,5]benzo[1,2-d]imidazol-6-yl)pyrazine-2-carboxamide] | > 1000 | 200 to 1000 |
| O=C(Nc1nc2cc3c(cc2[nH]1)OC(F)(F)O3)c1coc(-c2cccs2)n1 [Compound 136, N-(2,2-difluoro-5H-[1,3]dioxolo[4′,5′:4,5]benzo[1,2-d]imidazol-6-yl)-2-(thiophen-2-yl)oxazole-4-carboxamide] | 200 to 1000 | < 200 |
| O=C(Nc1nc2cc3c(cc2[nH]1)OC(F)(F)O3)c1csc(-c2cscn2)n1 [Compound 135, N-(2,2-difluoro-5H-[1,3]dioxolo[4′,5′:4,5]benzo[1,2-d]imidazol-6-yl)-[2,4-bithiazole]-4-carboxamide] | < 200 | < 200 |
| O=C(Nc1nc2cc3c(cc2[nH]1)OC(F)(F)O3)c1nnn(-c2cccc(F)c2)c1C(F)(F)F [Compound 36, N-(2,2-difluoro-5H-[1,3]dioxolo[4′,5′:4,5]benzo[1,2-d]imidazol-6-yl)-1-(3-fluorophenyl)-5-(trifluoromethyl)-1H-1,2,3-triazole-4-carboxamide] | > 1000 | 200 to 1000 |
| O=C(Nc1nc2cc3c(cc2[nH]1)OC(F)(F)O3)c1ccsc1 [Compound 20, N-(2,2-difluoro-5H-[1,3]dioxolo[4′,5′:4,5]benzo[1,2-d]imidazol-6-yl)thiophene-3-carboxamide] | 200 to 1000 | < 200 |
| Nc1sccc1C(=O)Nc1nc2cc3c(cc2[nH]1)OC(F)(F)O3 [Compound 79, 2-amino-N-(2,2-difluoro-5H-[1,3]dioxolo[4′,5′:4,5]benzo[1,2-d]imidazol-6-yl)thiophene-3-carboxamide] | 200 to 1000 | 200 to 1000 |
| O=C(Nc1nc2cc3c(cc2[nH]1)OC(F)(F)O3)c1csc2ccccc12 [Compound 31, N-(2,2-difluoro-5H-[1,3]dioxolo[4′,5′:4,5]benzo[1,2-d]imidazol-6-yl)benzo[b]thiophene-3-carboxamide] | 200 to 1000 | < 200 |
| O=C(Nc1nc2cc3c(cc2[nH]1)OC(F)(F)O3)c1cc(Cl)ccc1O [Compound 86, 5-chloro-N-(2,2-difluoro-5H-[1,3]dioxolo[4′,5′:4,5]benzo[1,2-d]imidazol-6-yl)-2-hydroxybenzamide] | > 1000 | > 1000 |
